The source of these data is patent publication US8278359B2, “Compositions containing amines and use thereof to treat acne or reduce the appearance of oil or pores on the skin” (Johnson & Johnson Consumer Companies, Inc., priority 2005, dated 2012).

In test [1] the test system is TNF (tissue necrosis factor-alpha). In words: PHA-stimulated peripheral blood lymphocyte cytokine release: TNF. Format: cell-based. The following applies: Homo sapiens, read-out: TNF % inh. The text has this: (§1) The ability of various amines to affect the inflammatory responses was illustrated by its ability to reduce the production of cytokines by human lymphocytes stimulated with the T-cell receptor (TCR) activating agent phytohaemagglutinin (PHA) in the following assay.
(§2) Human leukocytes were collected from a healthy adult […] via leukopheresis, and adjusted to a density Of 1×10^6 cells/mL in serum free lymphocyte growth medium (ExVivo-15, Biowhittaker, Walkersville, Md.). PBLs were stimulated with 10 μg/mL PHA in the presence or absence of test samples following published methods (Hamamoto Y., et al. Exp Dermatol 2:231-235, 1993). The following compounds were evaluated N,N,N′,N′-Tetrakis(2-hydroxypropyl)ethylenediamine (THPED, available from BASF under the tradename “Quadrol” or “Neutrol”), N,N,N,N-Tetramethylethylenediamine (TEMED, available from Pfaltz & Bauer Chemicals (Waterbury, Conn.)), and Diethylenetriamine (available from Sigma-Aldrich) Following a 48 hour incubation at 37° C. with 5% CO2, the supernatant was removed and evaluated for cytokine content using commercially available multiplex cytokine detection kit.

In the next test the test system is IL-2 (Interleukin-2). In words: PHA-stimulated peripheral blood lymphocyte cytokine release: IL-2. It is filed as cell-based. The following applies: Homo sapiens, read-out: IL-2 % inh.
Description: as §1, §2

In another test the test system is IFN (interferon-gamma). The experiment in a line: PHA-stimulated peripheral blood lymphocyte cytokine release: IFN. The following applies: Homo sapiens, read-out: IFN % inh. It is filed as cell-based.
Description: as §1, §2

For test [2], the system named is GM-CSF (granulocyte macrophage stimulating factor). The experiment in a line: PHA-stimulated peripheral blood lymphocyte cytokine release: GM-CSF. Format: cell-based. Conditions: Homo sapiens, read-out: GMCSF % inh.
Description: as §1, §2

Another test deals with B16 cells. In words: Induction of pigmentation in vitro, DOPA staining. The following applies: 10 ug/ml, 48 hours. It is filed as cell-based, murine. Here is the method:
THPED was tested for its effect on pigmentation, using melanocytes, DOPA staining and computerized image analysis. THPED was obtained from BASF (Florham Park, N.J.). THPED was dissolved in culture medium and pH was adjusted to neutral (pH 7.2). THPED was assayed at concentrations ranging from 0.05-0.01%.
B16 cells (a murine melanoma cell line) were obtained from American Type Culture Collection (Manassas, Va.). Cells were cultured in Dulbecco's Modified Eagle Medium (DMEM) containing 10% fetal bovine serum (FBS), 4.5 mg/ml glucose, 2 mM L-glutamine, sodium pyruvate, without phenol red (Invitrogen, Carlsbad, Calif.). B16 cells were plated on 12 well tissue culture plates (Corning Costar, San Diego, Calif.), at 40,000 cells per well in the above culture media. Cells were allowed to grow overnight and then treated with various concentrations of THPED at pH 7.2 for total 48 hours. Fresh media containing the experimental treatments were changed once daily.
At the end of the treatment, the cells were washed for 5 minutes, twice, in phosphate-buffered saline (PBS, from Life Technologies, Gaithersburg, Md.), then briefly fixed in 10% buffered formalin (from Sigma St. Louis, Mo.) for 10 minutes, washed three times with PBS and stained with 0.1% L-3,4-Dihydroxyphenylalanine (DOPA, from Sigma, St. Louis, Mo.) in PBS for 2-3 hours at 37° C., followed by three PBS washes. DOPA is a substrate for tyrosinase; therefore an increase in staining represents increased tyrosinase activity and pigment production. Images of DOPA-stained cells were taken using a Leica DMIL microscope (Bannockburn, Ill.) and an OPTRONICS DEI-750 digital camera (Goleta, Calif.). All images were obtained and analyzed with Image Pro Plus 4.0 software (Media Cybernetics, Silver Spring, Md.).
The pigment change was evaluated using the scale defined in Table XII.

Test [3] has as its system tyrosinase. The experiment in a line: Tyrosinase activity in lysates of treated B16 cells (DOPA, absorbance 490 nm). It is filed as cell-based, murine. Conditions: 10 μg/ml; B16 cells 48 hours; activity at 3-hours, normalized for total protein. As for the experimental part:
THPED was also tested for its ability to induce tyrosinase activity in B16 cells by spectroscopic measuring of the final product, melanin. B16 cells were treated with THPED at different concentrations at pH 7.2 for 48 hours and cells were then lysed in 250 μl of PBS containing 1% Triton X-100 (Sigma, St. Louis, Mo.). The lysates were collected and centrifuged at 14,000 rpm for 5 minutes at 4° C. to pellet any insoluble material. Lysates (100 μl) were transferred to a 96 well assay plate (Corning Costar, San Diego, Calif.) and mixed with 100 μl of 0.1% (w/v) DOPA in PBS. The absorbance at 490 nm was then monitored from 0 to 12 hours using a VersaMax Plate Spectrophotometer (Molecular Devices, Sunnyvale, Calif.) and SoftMax Pro analytical software (Molecular Devices, Sunnyvale, Calif.). The tyrosinase activities were normalized for total protein using the BioRad Dc Protein Assay (Bio Rad, Hercules, Calif.).

For test [4], the system named is tyrosinase. In words: Tyrosinase protein levels in B16 cells (Western blot, normalized to β-Actin). It is filed as cell-based, murine. The following applies: 20 μg/ml, PBS treated control = 1. Here is the method: THPED was also tested for its ability to induce tyrosinase protein levels in B16 cells. B16 cells were treated with THPED at different concentrations at pH 7.2 for 48 hours and cells were then lysed in 250 μl of PBS containing 1% Triton X-100. B16 cell lysates containing 3.7 μg of protein (for tyrosinase protein analysis) and 1.2 μg of protein (for β-Actin protein analysis) were electrophoresed on 4-20% Tris-Glycine SDS PAGE minigels (Invitrogen, Carlsbad, Calif.), transferred onto PVDF membrane (Bio Rad, Hercules, Calif.), and probed with antibodies for Tyrosinase (1:200 in PBS+0.2% Tween 20+5% BSA, obtained from Santa Cruz Biotechnology, Inc., Santa Cruz, Calif.) and β-Actin (1:2000 in PBS+0.2% Tween 20+5% BSA, obtained from Sigma, St. Louis, Mo.). Protein expression of tyrosinase and β-Actin were analyzed using ECL reagent and Hyperfilm ECL obtained from Amersham (Piscataway, N.J.). The film was developed using a Konica SRX-101A Processor (East Orange, N.J.).
Tyrosinase protein level in untreated B16 cells was normalized to 1.

Setting [5] is: 10 μg/ml, 10 μg/mL PHA, 48 hour incubation.
The mark [6] stands for this setting: 100 μg/ml, 10 μg/mL PHA, 48 hour incubation.

Like-named read-outs stand apart in the source and are kept apart here.

As to `NCCNCCN` [Diethylenetriamine], the inhibition at 10 µg/mL in test [1] (setting [5]) was 9.9%; with IL-2 (Interleukin-2) (setting [5]) it was 4.7%; with IFN (interferon-gamma) (setting [5]) it was -1.2%; in test [2] (setting [5]), 36.6%. Besides, the inhibition at 100 µg/mL in test [1] (setting [6]) is 3.3%; in the test on IL-2 (Interleukin-2) (setting [6]), -19.5%; in the test on IFN (interferon-gamma) (setting [6]) it was -35%; in test [2] (setting [6]) it was 51.7%.

For the molecule `OCCN(CCO)CCN(CCO)CCO` [THEED, N, N, N′, N′-Tetrakis(2-hydroxyethyl)ethylene diamine], the inhibition at 10 µg/mL in test [1] (48 h) was 35.8%; in the test on IL-2 (Interleukin-2) (48 h), 27.7%; in the test with IFN (interferon-gamma) (48 h) it was 23.7%; in test [2] (48 h), 16.6%. Besides, the inhibition at 100 µg/mL in test [1] (48 h) amounted to 44.5%; in the test on IL-2 (Interleukin-2) (48 h), 61.8%; with IFN (interferon-gamma) (48 h), 49.5%; in test [2] (48 h) it was 23%.

For `CN(C)CCN(C)C` [TEMED, N, N, N′, N′-tetramethylethylene diamine], the inhibition at 10 µg/mL in test [1] (48 h) amounted to 33.6%; with IL-2 (Interleukin-2) (48 h), 6.6%; with IFN (interferon-gamma) (48 h), 36.9%; in test [2] (48 h), 47.4%. For the same molecule, the inhibition at 100 µg/mL in test [1] (48 h) is 41.8%; in the test on IL-2 (Interleukin-2) (48 h), 42.9%; in the test on IFN (interferon-gamma) (48 h), 58.6%; in test [2] (48 h) it was 53.1%.

As for `CC(C)NCCN(CCNC(C)C)CCNC(C)C` [Tris[2-(isopropylamino)ethyl]amine, reference compound], the inhibition at 10 µg/mL in test [1] (setting [5]) is -10.7%; in the test on IL-2 (Interleukin-2) (setting [5]), -7.7%; in the test with IFN (interferon-gamma) (setting [5]), 20.3%; in test [2] (setting [5]), -26.4%. Also, the inhibition at 100 µg/mL in test [1] (setting [6]) is -15.3%; in the test on IL-2 (Interleukin-2) (setting [6]) it was 2.3%; with IFN (interferon-gamma) (setting [6]), 12.5%; in test [2] (setting [6]), -52.8%.

Regarding `C=C[C@@]1(C)CC(=O)[C@]2(O)[C@@]3(C)[C@@H](O)CCC(C)(C)[C@@H]3[C@H](O)[C@H](OC(C)=O)[C@@]2(C)O1` [Forskolin, forskolin, reference compound], the Pigmentation score in the test with B16 cells is listed as 3. Moreover, the “% tyrosinase activity relative to untreated control” value with tyrosinase [3] was found to be 202.35%. The “Relative increase in tyrosinase protein” value in the test with tyrosinase [4] was 34 fold.
